Measured values: patent US20090304689A1, “METHODS FOR THE IDENTIFICATION OF POLYPEPTIDE ANTIGENS ASSOCIATED WITH DISORDERS INVOLVING ABERRANT CELL PROLIFERATION AND COMPOSITIONS USEFUL FOR THE TREATMENT OF SUCH DISORDERS” (priority 2001, published 2009)

Experiments:
[1] = clinical trials discontinued; cited from earlier work
SK-BR3 cells = assay: Anti-proliferative effect / cytotoxicity on SK-BR-3 breast tumor cells (crystal violet, FIG. 4); format: cell-based, human
Description: SK-BR-3 human breast carcinoma cells were from The American Type Culture Collection (Rockville, Md.). […] SK-BR-3 cells were cultured in high glucose DMEM:Ham's F-12 (50:50) supplemented with 10% heat-inactivated fetal bovine serum and 2 mM 1-glutamine (all from GIBCO/BRL, Grand Island, N.Y.).
Cells were plated at the following densities in 96-well microtiter culture plates: 2×10^4 per well for SK-BR-3; 10^4 per well for HMEC, SAEC and NHEK; and 3.5×10^4 per well for human hepatocytes (pre-plated on collagen-coated plates by In Vitro Technologies) and allowed to adhere overnight in the incubator (37° C., 5% CO2). […] After a 3 day incubation, the media were removed, the cell monolayers washed once with PBS and stained with crystal violet dye (0.5% crystal violet, 20% methanol).
For all experiments, after removal of the crystal violet dye, plates were allowed to air-dry overnight. The dye was then eluted with 0.1 M sodium citrate:ethanol (50:50), pH 4.2 and the plates read in an SLT 340 ATC plate-reader at a wavelength of 540 nm. Each treatment group consisted of 4 replicates and the data are represented as mean O.D.540+/− standard error or relative to cell proliferation as compared to untreated control cells (mean+/−s.e.).

Compound	adverse effects in clinical trials [1]	cell growth inhibition (SK-BR3 cells)
COc1cc2cc(c1Cl)N(C)C(=O)C[C@H](OC(=O)[C@H](C)N(C)C(C)=O)[C@]1(C)O[C@H]1[C@H](C)[C@@H]1C[C@@](O)(NC(=O)O1)[C@H](OC)/C=C/C=C(\C)C2 [maytansine]	peripheral neuropathy	–
RITUXAN®: control, unrelated monoclonal antibody RITUXAN®	–	did not inhibit cell growth
